Measured values taken from US9974761B2, “Medications for deposition on biological surfaces” (The Procter & Gamble Company, priority 2014, dated 2018).

Tested on: human TRPM8
Test: TRPM8 Protocol-FLIPR Assay (intracellular Ca2+)
Type: cell-based
Conditions: for TRPM8 Time Course Activity 50 sec % of WS5 / TRPM8 Time Course Activity 3 min % of WS5 / TRPM8 Time Course Activity 5 min % of WS5 / TRPM8 Time Course Activity 10 min % of WS5: vs 30 uM WS-5; for TRPM8 Time Course Activity 3 min: fluorescence at 3 min; for TRPM8 Time Course Activity 5 min: fluorescence at 5 min; for TRPM8 Time Course Activity 10 min: fluorescence at 10 min

CC(C)[C@@H]1CC[C@@H](C)C[C@H]1C(=O)NCC(NC(=O)[C@@H](C)N)c1ccccc1 (single isomer, unassigned) [Compound 28 fraction 1]
TRPM8 Time Course Activity 50 sec % of WS5 (dose 6.1 nM): 8.8%
TRPM8 Time Course Activity 3 min % of WS5 (dose 6.1 nM): 36.5%
TRPM8 Time Course Activity 5 min % of WS5 (dose 6.1 nM): 46.7%
TRPM8 Time Course Activity 10 min % of WS5 (dose 6.1 nM): 56.1%
TRPM8 Time Course Activity 3 min (dose 6.1 nM): 3452.0
TRPM8 Time Course Activity 5 min (dose 6.1 nM): 4426.0
TRPM8 Time Course Activity 10 min (dose 6.1 nM): 5375.0
TRPM8 Time Course Activity 50 sec % of WS5 (dose 12.2 nM): 30.0%
TRPM8 Time Course Activity 3 min % of WS5 (dose 12.2 nM): 93.0%
TRPM8 Time Course Activity 5 min % of WS5 (dose 12.2 nM): 103.8%
TRPM8 Time Course Activity 10 min % of WS5 (dose 12.2 nM): 115.5%
TRPM8 Time Course Activity 3 min (dose 12.2 nM): 8783.0
TRPM8 Time Course Activity 5 min (dose 12.2 nM): 9830.0
TRPM8 Time Course Activity 10 min (dose 12.2 nM): 11065.0
TRPM8 Time Course Activity 50 sec % of WS5 (dose 24.4 nM): 19.2%
TRPM8 Time Course Activity 3 min % of WS5 (dose 24.4 nM): 67.8%
TRPM8 Time Course Activity 5 min % of WS5 (dose 24.4 nM): 80.2%
TRPM8 Time Course Activity 10 min % of WS5 (dose 24.4 nM): 92.7%
TRPM8 Time Course Activity 3 min (dose 24.4 nM): 6405.0
TRPM8 Time Course Activity 5 min (dose 24.4 nM): 7593.0
TRPM8 Time Course Activity 10 min (dose 24.4 nM): 8879.0
TRPM8 Time Course Activity 50 sec % of WS5 (dose 48.8 nM): 29.0%
TRPM8 Time Course Activity 3 min % of WS5 (dose 48.8 nM): 84.8%
TRPM8 Time Course Activity 5 min % of WS5 (dose 48.8 nM): 94.9%
TRPM8 Time Course Activity 10 min % of WS5 (dose 48.8 nM): 106.8%
TRPM8 Time Course Activity 3 min (dose 48.8 nM): 8017.0
TRPM8 Time Course Activity 5 min (dose 48.8 nM): 8983.0
TRPM8 Time Course Activity 10 min (dose 48.8 nM): 10224.0
TRPM8 Time Course Activity 50 sec % of WS5 (dose 97.6 nM): 39.4%
TRPM8 Time Course Activity 3 min % of WS5 (dose 97.6 nM): 103.1%
TRPM8 Time Course Activity 5 min % of WS5 (dose 97.6 nM): 113.1%
TRPM8 Time Course Activity 10 min % of WS5 (dose 97.6 nM): 125.4%
TRPM8 Time Course Activity 3 min (dose 97.6 nM): 9744.0
TRPM8 Time Course Activity 5 min (dose 97.6 nM): 10711.0
TRPM8 Time Course Activity 10 min (dose 97.6 nM): 12011.0
TRPM8 Time Course Activity 50 sec % of WS5 (dose 195 nM): 53.9%
TRPM8 Time Course Activity 3 min % of WS5 (dose 195 nM): 116.8%
TRPM8 Time Course Activity 5 min % of WS5 (dose 195 nM): 124.9%
TRPM8 Time Course Activity 10 min % of WS5 (dose 195 nM): 136.2%
TRPM8 Time Course Activity 3 min (dose 195 nM): 11037.0
TRPM8 Time Course Activity 5 min (dose 195 nM): 11824.0
TRPM8 Time Course Activity 10 min (dose 195 nM): 13046.0
TRPM8 Time Course Activity 3 min % of WS5 (dose 390 nM): 120.4%
TRPM8 Time Course Activity 5 min % of WS5 (dose 390 nM): 126.4%
TRPM8 Time Course Activity 10 min % of WS5 (dose 390 nM): 137.0%
TRPM8 Time Course Activity 3 min (dose 390 nM): 11373.0
TRPM8 Time Course Activity 5 min (dose 390 nM): 11968.0
TRPM8 Time Course Activity 10 min (dose 390 nM): 13121.0
TRPM8 Time Course Activity 3 min % of WS5 (dose 781 nM): 128.9%
TRPM8 Time Course Activity 5 min % of WS5 (dose 781 nM): 133.3%
TRPM8 Time Course Activity 10 min % of WS5 (dose 781 nM): 142.7%
TRPM8 Time Course Activity 3 min (dose 781 nM): 12182.0
TRPM8 Time Course Activity 5 min (dose 781 nM): 12618.0
TRPM8 Time Course Activity 10 min (dose 781 nM): 13661.0
TRPM8 Time Course Activity 3 min % of WS5 (dose 1.563 uM): 128.4%
TRPM8 Time Course Activity 5 min % of WS5 (dose 1.563 uM): 132.0%
TRPM8 Time Course Activity 10 min % of WS5 (dose 1.563 uM): 140.4%
TRPM8 Time Course Activity 3 min (dose 1.563 uM): 12135.0
TRPM8 Time Course Activity 5 min (dose 1.563 uM): 12499.0
TRPM8 Time Course Activity 10 min (dose 1.563 uM): 13440.0
TRPM8 Time Course Activity 3 min % of WS5 (dose 3.125 uM): 133.4%
TRPM8 Time Course Activity 5 min % of WS5 (dose 3.125 uM): 136.7%
TRPM8 Time Course Activity 10 min % of WS5 (dose 3.125 uM): 144.6%
TRPM8 Time Course Activity 3 min (dose 3.125 uM): 12602.0
TRPM8 Time Course Activity 5 min (dose 3.125 uM): 12939.0
TRPM8 Time Course Activity 10 min (dose 3.125 uM): 13850.0
TRPM8 Time Course Activity 3 min % of WS5 (dose 6.25 uM): 135.2%
TRPM8 Time Course Activity 5 min % of WS5 (dose 6.25 uM): 138.3%
TRPM8 Time Course Activity 10 min % of WS5 (dose 6.25 uM): 147.3%
TRPM8 Time Course Activity 3 min (dose 6.25 uM): 12775.0
TRPM8 Time Course Activity 5 min (dose 6.25 uM): 13098.0
TRPM8 Time Course Activity 10 min (dose 6.25 uM): 14102.0
TRPM8 Time Course Activity 3 min % of WS5 (dose 12.5 uM): 133.3%
TRPM8 Time Course Activity 5 min % of WS5 (dose 12.5 uM): 137.3%
TRPM8 Time Course Activity 10 min % of WS5 (dose 12.5 uM): 145.6%
TRPM8 Time Course Activity 3 min (dose 12.5 uM): 12591.0
TRPM8 Time Course Activity 5 min (dose 12.5 uM): 12997.0
TRPM8 Time Course Activity 10 min (dose 12.5 uM): 13947.0
TRPM8 Time Course Activity 3 min % of WS5 (dose 25 uM): 137.8%
TRPM8 Time Course Activity 5 min % of WS5 (dose 25 uM): 141.0%
TRPM8 Time Course Activity 10 min % of WS5 (dose 25 uM): 149.8%
TRPM8 Time Course Activity 3 min (dose 25 uM): 13020.0
TRPM8 Time Course Activity 5 min (dose 25 uM): 13354.0
TRPM8 Time Course Activity 10 min (dose 25 uM): 14341.0
TRPM8 Time Course Activity 3 min % of WS5 (dose 50 uM): 130.1%
TRPM8 Time Course Activity 5 min % of WS5 (dose 50 uM): 133.7%
TRPM8 Time Course Activity 10 min % of WS5 (dose 50 uM): 137.5%
TRPM8 Time Course Activity 3 min (dose 50 uM): 12295.0
TRPM8 Time Course Activity 5 min (dose 50 uM): 12654.0
TRPM8 Time Course Activity 10 min (dose 50 uM): 13169.0
TRPM8 Time Course Activity 3 min % of WS5 (dose 100 uM): 132.5%
TRPM8 Time Course Activity 5 min % of WS5 (dose 100 uM): 135.7%
TRPM8 Time Course Activity 10 min % of WS5 (dose 100 uM): 137.7%
TRPM8 Time Course Activity 3 min (dose 100 uM): 12520.0
TRPM8 Time Course Activity 5 min (dose 100 uM): 12844.0
TRPM8 Time Course Activity 10 min (dose 100 uM): 13187.0
